Experimental data taken from ChEMBL document CHEMBL5096210, “Discovery of Betulinic Acid Derivatives as Potent Intestinal Farnesoid X Receptor Antagonists to Ameliorate Nonalcoholic Steatohepatitis” (J Med Chem, 2022).
Activity calls are given as the source filed them. No cut-off for these calls is given here.

Tests used:
Bile acid receptor = target: T1, Bile acid receptor (Homo sapiens, UniProt Q96RI1); test: Antagonist activity at FXR (unknown origin) expressed in HEK293T cells cotransfected with pCMV-Script-hFXR/pGL4.11-hSHP-Luciferase incubated for 24 hrs in presence of GW4064 by Steady-glo luciferase assay; type: cell-based
T1 sequence (Q96RI1 whole entry): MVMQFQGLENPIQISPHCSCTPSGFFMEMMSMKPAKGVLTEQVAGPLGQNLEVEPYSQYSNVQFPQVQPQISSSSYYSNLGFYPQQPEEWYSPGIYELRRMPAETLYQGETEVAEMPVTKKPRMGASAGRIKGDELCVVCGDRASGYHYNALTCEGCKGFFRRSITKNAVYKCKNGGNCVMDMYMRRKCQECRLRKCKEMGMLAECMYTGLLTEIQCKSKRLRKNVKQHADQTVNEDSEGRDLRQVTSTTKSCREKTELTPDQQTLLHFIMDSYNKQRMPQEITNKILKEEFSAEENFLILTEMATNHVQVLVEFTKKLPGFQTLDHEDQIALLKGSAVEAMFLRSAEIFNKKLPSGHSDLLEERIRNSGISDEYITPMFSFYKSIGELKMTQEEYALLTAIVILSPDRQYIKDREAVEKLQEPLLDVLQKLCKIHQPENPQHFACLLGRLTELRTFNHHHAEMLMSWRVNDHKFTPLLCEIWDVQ

[1] = Cytotoxicity against HEK293T cells cotransfected with pCMV-Script-hFXR/pGL4.11-hSHP-Luciferase incubated for 24 hrs in presence of GW4064 by celltiter-blue cell viability assay; type: toxicity, cell-based, HEK-293T; conditions: human
[2] = target: T2, G-protein coupled bile acid receptor 1 (Homo sapiens, UniProt Q8TDU6); test: Agonist activity against TGR5 (unknown origin); type: functional
T2 sequence (Q8TDU6 whole entry): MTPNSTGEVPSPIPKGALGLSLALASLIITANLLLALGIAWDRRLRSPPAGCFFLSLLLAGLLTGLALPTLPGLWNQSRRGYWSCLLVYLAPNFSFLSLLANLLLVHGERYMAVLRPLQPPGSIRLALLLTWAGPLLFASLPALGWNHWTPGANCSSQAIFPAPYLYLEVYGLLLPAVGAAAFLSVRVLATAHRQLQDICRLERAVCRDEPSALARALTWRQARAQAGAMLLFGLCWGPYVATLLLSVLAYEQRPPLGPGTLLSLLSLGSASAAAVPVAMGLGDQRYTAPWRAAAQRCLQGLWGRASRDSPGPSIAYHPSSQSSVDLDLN

[3] = target: T3, Bile acid receptor (Homo sapiens) (UniProt Q96RI1); test: Agonist activity against FXR (unknown origin) at upto 100 uM; conditions: filed as agonist
T3 sequence (whole entry): T1 sequence (Q96RI1 whole entry)

[4] = target: T4, Bile acid receptor (Mus musculus) (UniProt Q60641); test: In vivo antagonist activity against FXR in microbeta depleted mouse assessed as reduction in taurocholic acid induced Shp mRNA expression in ileum at 10 mg/kg, po incubated for 2 to 48 hrs; type: functional, organism-based; conditions: time 2-48 hrs
T4 sequence (whole entry): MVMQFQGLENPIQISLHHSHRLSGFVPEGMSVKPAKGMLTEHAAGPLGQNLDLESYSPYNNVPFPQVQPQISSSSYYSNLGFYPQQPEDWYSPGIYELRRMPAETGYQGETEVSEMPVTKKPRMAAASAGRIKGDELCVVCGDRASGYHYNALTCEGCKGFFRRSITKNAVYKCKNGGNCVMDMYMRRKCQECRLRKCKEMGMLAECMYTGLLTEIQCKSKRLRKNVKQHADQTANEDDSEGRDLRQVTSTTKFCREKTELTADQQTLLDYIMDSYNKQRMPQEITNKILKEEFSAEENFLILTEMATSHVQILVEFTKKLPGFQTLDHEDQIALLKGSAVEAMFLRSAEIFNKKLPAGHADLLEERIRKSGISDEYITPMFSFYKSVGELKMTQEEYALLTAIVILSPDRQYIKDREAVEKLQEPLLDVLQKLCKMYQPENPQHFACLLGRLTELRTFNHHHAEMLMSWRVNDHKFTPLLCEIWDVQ

[5] = target: T4, Bile acid receptor (Mus musculus); test: In vivo antagonist activity against FXR in microbeta depleted mouse assessed as reduction in taurocholic acid induced Fgf15 mRNA expression in ileum at 10 mg/kg, po incubated for 2 to 48 hrs; type: functional, organism-based; conditions: time 2-48 hrs
[6] = target: T4, Bile acid receptor (Mus musculus); test: In vivo antagonist activity against FXR in microbeta depleted mouse assessed as reduction in taurocholic acid induced FXR mRNA expression in hepatic signaling at 10 mg/kg, po incubated for 2 to 48 hrs; type: functional, organism-based; conditions: time 2-48 hrs
Mus musculus [7] = test: Anti-NASH activity in GAN diet-induced […] mouse assessed as reduction of dihydroceramide level in serum administered orally for 12 weeks; type: functional, organism-based; conditions: route po
Mus musculus [8] = test: Anti-NASH activity in GAN diet-induced […] mouse assessed as reduction of glycosyl-ceramide level in serum administered orally for 12 weeks; type: functional, organism-based; conditions: route po
Mus musculus [9] = test: Anti-NASH activity in GAN diet-induced […] mouse assessed as reduction of sphinogo-myelin level in serum administered orally for 12 weeks; type: functional, organism-based; conditions: route po
Mus musculus [10] = test: Anti-NASH activity in GAN diet-induced […] mouse assessed as reduction of ceramide level in serum administered orally for 12 weeks; type: functional, organism-based; conditions: route po
Mus musculus [11] = species: Mus musculus; test: Anti-NASH activity in GAN diet-induced […] mouse assessed as increase in hepatic bile acid synthesis; type: functional, organism-based
Mus musculus [12] = species: Mus musculus; test: Anti-NASH activity in GAN diet-induced […] mouse assessed as reduction of bile acid pool size in ileum; type: functional, organism-based
Mus musculus [13] = species: Mus musculus; test: Anti-NASH activity in GAN diet-induced […] mouse assessed as reduction in bile acid loss in cecum content; type: functional, organism-based
Mus musculus [14] = species: Mus musculus; test: Anti-NASH activity in GAN diet-induced […] mouse assessed as bile acid level in serum; type: functional, organism-based
Mus musculus [15] = species: Mus musculus; test: Anti-NASH activity in GAN diet-induced […] mouse assessed as bile acid level in gall bladder; type: functional, organism-based

SMILES | IC50 (Bile acid receptor) | IC50 at 24 h [1] | also measured
CC(C)[C@@H]1CC[C@]2(C(=O)NCC(=O)O)CC[C@]3(C)[C@H](CC[C@@H]4[C@@]5(C)CC[C@@H](O)C(C)(C)[C@@H]5CC[C@]43C)[C@@H]12 | 74 µM | > 100 µM | EC50 [2]: > 100 µM; Activity [3]: Active
C[C@H](CCC(=O)NCC(=O)O)[C@H]1CC[C@H]2[C@@H]3[C@@H](O)C[C@@H]4C[C@H](O)CC[C@]4(C)[C@H]3CC[C@]12C [GLYCOURSODEOXYCHOLIC ACID] |  | > 100 µM | Activity [4]: Active; Activity [5]: Active; Activity [6]: Active; Activity (Mus musculus [7]): Active; Activity (Mus musculus [8]): Active; Activity (Mus musculus [9]): Active; Activity (Mus musculus [10]): Active; Activity (Mus musculus [11]): Active; Activity (Mus musculus [12]): Active; Activity (Mus musculus [13]): Active; Activity (Mus musculus [14]): Active; Activity (Mus musculus [15]): Active
CCCS(=O)(=O)O[C@@H]1CC[C@]2(C)[C@H]3CC[C@@H]4[C@H]5[C@H](C(C)C)CC[C@]5(C(=O)NCC(=O)O)CC[C@@]4(C)[C@]3(C)CC[C@H]2C1(C)C | 14 µM | > 100 µM | 
CCC(=O)O[C@@H]1CC[C@]2(C)[C@H]3CC[C@@H]4[C@H]5[C@H](C(C)C)CC[C@]5(C(=O)NCC(=O)O)CC[C@@]4(C)[C@]3(C)CC[C@H]2C1(C)C | 9.1 µM | > 100 µM | 
COc1ccc(C(=O)O[C@@H]2CC[C@]3(C)[C@H]4CC[C@@H]5[C@H]6[C@H](C(C)C)CC[C@]6(C(=O)NCC(=O)O)CC[C@@]5(C)[C@]4(C)CC[C@H]3C2(C)C)cc1 | 4.1 µM | > 100 µM | 
CCCC(=O)O[C@@H]1CC[C@]2(C)[C@H]3CC[C@@H]4[C@H]5[C@H](C(C)C)CC[C@]5(C(=O)OCC(=O)O)CC[C@@]4(C)[C@]3(C)CC[C@H]2C1(C)C | 1.9 µM | 29.2 µM | 
CC(C)[C@@H]1CC[C@]2(C(=O)NCC(=O)O)CC[C@]3(C)[C@H](CC[C@@H]4[C@@]5(C)CC[C@@H](OC(=O)c6ccco6)C(C)(C)[C@@H]5CC[C@]43C)[C@@H]12 | > 100 µM | > 100 µM | 
CC(C)[C@@H]1CC[C@]2(C(=O)NCC(=O)O)CC[C@]3(C)[C@H](CC[C@@H]4[C@@]5(C)CC[C@@H](OC(=O)C6CC6)C(C)(C)[C@@H]5CC[C@]43C)[C@@H]12 | 10 µM | > 100 µM | 
CCCC(=O)O[C@@H]1CC[C@]2(C)[C@H]3CC[C@@H]4[C@H]5[C@H](C(C)C)CC[C@]5(NC(=O)OCC(=O)O)CC[C@@]4(C)[C@]3(C)CC[C@H]2C1(C)C | 0.9 µM | 1 µM | 
CCNC(=O)O[C@@H]1CC[C@]2(C)[C@H]3CC[C@@H]4[C@H]5[C@H](C(C)C)CC[C@]5(C(=O)NCC(=O)O)CC[C@@]4(C)[C@]3(C)CC[C@H]2C1(C)C | 3.4 µM | 56 µM | 
CC(C)[C@@H]1CC[C@]2(C(=O)NCC(=O)O)CC[C@]3(C)[C@H](CC[C@@H]4[C@@]5(C)CC[C@@H](OC(=O)c6ccccc6)C(C)(C)[C@@H]5CC[C@]43C)[C@@H]12 | 1.1 µM | 35 µM | 
CC(C)C(=O)O[C@@H]1CC[C@]2(C)[C@H]3CC[C@@H]4[C@H]5[C@H](C(C)C)CC[C@]5(C(=O)NCC(=O)O)CC[C@@]4(C)[C@]3(C)CC[C@H]2C1(C)C | 4.6 µM | > 100 µM | 
